Reference: ChEMBL document CHEMBL1255264, “Mechanism-based pharmacokinetic-pharmacodynamic models of in vitro fungistatic and fungicidal effects against Candida albicans” (Antimicrob Agents Chemother, 2008)
Converted amounts (≈) assume the structure as drawn.

Legend:
Candida albicans [1] = experiment: Antifungal activity against Candida albicans ATCC 3153 assessed as maximum killing rate in vitro pharmacokinetic-pharmacodynamic model; format: functional
Candida albicans [2] = experiment: Antifungal activity against Candida albicans ATCC 3153 after 48 hrs; format: functional; details: ATCC 3153, 48 h
Candida albicans [3] = experiment: Antifungal activity against Candida albicans ATCC 3153 assessed as death stimulation in vitro pharmacokinetic-pharmacodynamic model; format: functional, organism-based
Candida albicans [4] = experiment: Antifungal activity against Candida albicans ATCC 3153 in vitro pharmacokinetic-pharmacodynamic model; format: functional, organism-based

Row | Structure (SMILES) | Emax (Candida albicans [1]) [×10⁻¹ /hr] | MIC (Candida albicans [2]) [µg/mL] | EC50 (Candida albicans [3]) [µg/mL] | IC50 (Candida albicans [4]) [µg/mL]
1 | CC[C@H](C)C[C@H](C)CCCCCCCCC(=O)N[C@H]1C[C@@H](O)[C@@H](NCCN)NC(=O)[C@@H]2[C@@H](O)CCN2C(=O)[C@H]([C@H](O)CCN)NC(=O)[C@H]([C@H](O)[C@@H](O)c2ccc(O)cc2)NC(=O)[C@@H]2C[C@@H](O)CN2C(=O)[C@H]([C@@H](C)O)NC1=O [CASPOFUNGIN] | 8.04 | 0.015 (≈ 0.0137 µM) | 0.000251 (≈ 0.00023 µM) | –
2 | OC(Cn1cncn1)(Cn1cncn1)c1ccc(F)cc1F [FLUCONAZOLE] | – | – | – | 0.0929 (≈ 0.303 µM)
